Assay results reported in patent publication US6476199B1, “Reagents for lysergic acid diethylamide immunoassay” (priority 1996, dated 2002).

Key:
[1] = light; pH above 7 epimerization at C-8 to iso-LSD; prolonged light oxidation at C-9; cited from earlier work
[2] = test system: anti-LSD antibody G651; experiment: ELISA microtiter plate assay, plate coated with LSD-BSA label-conjugate 14, antiserum G651; type: binding, goats; conditions: for G651(OD): conjugate 14 coating, 405 nm
Experimental: (§1) The novel reagents were tested in an ELISA immunoassay as described in Example 27. The N-indole derived LSD-BSA label-conjugate 14 containing the biphenyl linker was used to compete against known concentrations of LSD for binding to the anti-LSD antibodies, G648 and G651, raised against the LSD immunogen 8.
FIG. 2 provides the curve generated from an ELISA microtiter plate assay, as described in Example 27, using nor-LSD as the standard.

[3] = test system: anti-LSD antibody G648; experiment: ELISA microtiter plate assay, plate coated with LSD-BSA label-conjugate 21, antiserum G648; conditions: conjugate 21 coating, 405 nm, FIG. 3
[4] = test system: anti-LSD antibody G648; experiment: ELISA microtiter plate assay, plate coated with LSD-BSA label-conjugate 14, antiserum G648; type: binding, goats; conditions: for G648(OD): conjugate 14 coating, 405 nm, FIG. 1
Experimental: as §1

[5] = test system: anti-LSD antibody G651; experiment: ELISA microtiter plate assay, plate coated with LSD-BSA label-conjugate 21, antiserum G651; conditions: conjugate 21 coating, 405 nm, FIG. 3
[6] = test system: LSD antibodies; conditions: prior-art antibodies, Van Vunakis 1971; cited from earlier work

CCN(CC)C(=O)[C@@H]1C=C2c3cccc4[nH]cc(c34)C[C@H]2N(C)C1 [LSD, D-lysergic acid diethyl amide]
stability [1]: sensitive to light and alkaline pH
G651(OD) ([2]; 0.5 ng/mL free LSD, FIG. 1): 1.05 OD
G651(OD) ([2]; 1 ng/mL free LSD, FIG. 1): 0.75 OD
G651(OD) ([2]; 5 ng/mL free LSD, FIG. 1): 0.39 OD
G651(OD) ([2]; 5 ng/mL free drug, FIG. 2): 0.63 OD
G648(OD) ([3]; 0.5 ng/mL free LSD): 0.52 OD
G648(OD) ([3]; 1 ng/mL free LSD): 0.37 OD
G648(OD) ([3]; 5 ng/mL free LSD): 0.17 OD
G648(OD) ([4]; 0.5 ng/mL free LSD): 0.8 OD
G648(OD) ([4]; 1 ng/mL free LSD): 0.33 OD
G648(OD) ([4]; 5 ng/mL free LSD): 0.25 OD
G651(OD) ([5]; 0.5 ng/mL free LSD): 0.5 OD
G651(OD) ([5]; 1 ng/mL free LSD): 0.33 OD
G651(OD) ([5]; 5 ng/mL free LSD): 0.19 OD

CCN(CC)C(=O)[C@@H]1C=C2c3cccc4[nH]cc(c34)C[C@H]2NC1 [Nor-LSD, 8β-9,10-didehydro-N,N-diethylergoline-8-carboxamide]
G651(OD) ([2]; 1 ng/mL free drug, FIG. 2): 1.2 OD
G651(OD) ([2]; 5 ng/mL free drug, FIG. 2): 0.88 OD
binding of antibody G651 raised against immunogen 8 ([2]; in words): bind
binding of antibody G648 raised against immunogen 8 ([4]; in words): bind

C[C@@H](CO)NC(=O)[C@@H]1C=C2c3cccc4[nH]cc(c34)C[C@H]2N(C)C1 [ergonovine]
competition for binding to the LSD antibodies (cross-reactivity) [6]: compete for binding

CC(C)C[C@H]1C(=O)N2CCC[C@H]2[C@]2(O)O[C@@](C)(NC(=O)[C@@H]3C=C4c5cccc6[nH]cc(c56)C[C@H]4N(C)C3)C(=O)N12 [ergosine]
competition for binding to the LSD antibodies (cross-reactivity) [6]: compete for binding

CN1C[C@H](C(=O)N[C@]2(C)O[C@@]3(O)[C@@H]4CCCN4C(=O)[C@H](Cc4ccccc4)N3C2=O)C=C2c3cccc4[nH]cc(c34)C[C@H]21 [ergotamine]
competition for binding to the LSD antibodies (cross-reactivity) [6]: compete for binding

CC[C@@H](CO)NC(=O)[C@@H]1C=C2c3cccc4c3c(cn4C)C[C@H]2N(C)C1 [methysergide]
competition for binding to the LSD antibodies (cross-reactivity) [6]: compete for binding
